One test deals with NMDA receptor. Description: [3H]MK-801 displacement radioligand binding, rat forebrain membranes. As to the method:
The identification of possible recognition sites for PRS-211 analogs was carried out by measuring the ability of these PRS-211 analogs to inhibit the binding of MK-801 to rat forebrain membranes.
Brains were removed from Sprague-Dawley rats no more than 5 min after decapitation. Membrane preparations were isolated according to a procedure described previously (Eshhar et al., Brain Res. 476:57, 1989). Prior to radioligand binding measurements, endogenous glutamate present in membranes was removed from the preparation by subjecting the membranes to 3–4 successive washings in 10 mM Tris HCl pH 7.2, performed at 4° C.
The specific binding of the new analogs to NMDA receptors was determined by their ability to displace [^3H]MK-801 from NMDA receptor in rat forebrain preparations. Specifically, rat-forebrain membranes (0.1 mg) were incubated for 2 hours at room temperature with 10 nM of tritiated MK-801 and with the PRS-211 compounds at 3 doses each. Non-specific binding was determined by the use of 0.1 mM MK-801. Following the incubation, bound radioligand was separated from unbound by filtration through GF/B filters. The filters were counted in a β-counter and log of analog concentrations versus % of [^3H]MK-801 specific binding was plotted. The IC50 was calculated from this plot.
Binding of [^3H]MK-801 to membranes was carried out in the presence of 30 μM glycine and 10 μM L-glutamate. Membranes (250 μg protein) were resuspended in 50 mM tris-acetate pH 7.4 buffer and incubated with 10 nM [^3H]MK-801, either alone or in the presence of PRS-211 compounds at 0.1–100 μM concentrations for three hours at room temperature (RT). Reaction buffers used in the different radioligand binding studies contained 10% of an ethanol/Emulphor 620/deionized water mixture. The ratio (by volume) of the respective components in the mixture was 20/3/57. This mixture is required for solubilizing PRS-211 compounds at concentrations above 30 μM. Reaction volume was 1 ml. Non-specific [^3H]MK-801 binding was determined in the presence of 100 μM unlabeled MK-801.
Concentration dependence of certain PRS-211 analogs on inhibition of [^3H]MK-801 binding is illustrated in FIG. 1.

The subject of test [1] is T1, nitric oxide synthase (NOS).
T1 construct: endogenous in cells
Put plainly: Inhibition of nitric oxide synthase, fluorimetric nitrite assay in LPS-stimulated macrophage supernatants. The following applies: macrophage cell cultures. The test is classed as cell-based. As to the method: As one aspect of the anti-oxidative potential of the novel analogs they were tested for their ability to inhibit the enzyme nitric oxide synthase (NOS). This assay can also serve as another indication of the anti-inflammatory cascade, as well as the anti-oxidative mechanisms.
The final products of NOS are Nitrite (NO2) and Nitrate (NO3). The in vitro fluorimetric assay provides an accurate method for the measurement of the Nitrite, which is the majority of NO products. The principle of the fluorimetric assay is based on the addition of DAN (2,3-diaminonaphthalene) to the aliquots of the supernatants collected from macrophage cell cultures incubated with the new analogs and stimulated with LPS. Following, NaOH was added to convert Nitrite to a fluorescent compound 1(H)-naphthtriazole. The fluorescence was measured immediately in a fluorimeter using excitation wavelength of 365 nm and an emission wavelength of 450 nm.

The test system of a further test is TNFα. Description: Inhibition of TNFα in LPS-activated macrophage cell cultures (ELISA). The test is classed as cell-based. As to the method:
Specific aspects of the inflammatory response cascade are mediated by the cytokine TNFα. Inhibition of TNFα production and/or inhibition of TNFα release by the new analogs are assayed in macrophage cell cultures activated with LPS. This serves as another indication of the general anti-inflammatory potential of the novel compounds.
The method for macrophage cell culture growth is identical to the one described in PGE2 assay. Aliquots of the supernatants collected following stimulation with LPS were quantitated for TNFα by enzyme linked immunosorbent assay (ELISA) using HRP conjugated to anti-TNFα antibodies and […] for the colorimetric reaction. The peroxidase catalyzed color reaction was stopped by acidification and the absorbance at 450 nm is measured. The absorbance at this wavelength is proportional to the concentration of TNFα in the sample determined from a standard curve plotting the concentrations of TNFα standards versus their absorbance.

The test system of the next test is transient MCAo in rats. Put plainly: Transient middle cerebral artery occlusion (MCAo), infarct size evaluation. The test is classed as in vivo. The following applies: transient MCAo. The source says:
The middle cerebral artery is the cerebral blood vessel most susceptible to stroke in humans. In animals, coagulation, permanent ligation or permanent placement of an occluding thread ink the artery produces a permanent focal stroke affecting the MCA territory. Transient ligation or occlusion results in transient focal stroke. Both transient and permanent focal strokes result in varying degrees of edema and infarction in the affected brain regions. The ability of compounds to reduce the volumes of edema and infarction is considered a measure of their potential as anti-stroke treatment.
• a. Male rats (8/treatment group) 320–380 gr. (Harlan Israel). • b. Halothane (Rhone Poulenc France) • c. Pentobarbitone (Pental Veterinary, CTS Israel). • d. Poly-L-Lysine (Sigma, USA). • e. Silk suture material 3-0 and 4-0. • f. Nylon (Polyamid) suture material 3-0. Four cm pieces were cut and positioned in a solution of 1% Poly-L-Lysine for 1 minute and dried in an oven (60 ° C.) for 60 minutes. The tip of each piece was rounded under a flame. • g. Saline (Teva Medical). • h. Blank cremophor ethanol cosolvent (Pharmos). • i. Dexanabinol in cremophor ethanol cosolvent 50 mg/ml. (Both Dexanabinol and its vehicle were diluted in saline prior to drug administration. • j. Analogs PRS-211,092, PRS-211,095, PRS-211,128 PRS-211,132 and PRS-211,220 in cremophor ethanol cosolvent, 50 mg/ml. • k. The analogs were diluted in saline prior to drug administration. Methods Transient MCAo
a. Surgical details of the MCAO method used for testing dexanabinol analogs, are presented in Belayev, et al., (Belayev, Busto, Weizhao, and Ginsberg, Stroke 26:2313–2319, 1995) which is incorporated herein in its entirety by reference.
b. Two hours after the start of MCAo, the animals were reanesthetized with halothane, the neck wound was re-opened and the nylon thread pulled out of the Internal carotid artery (ICA). The skin wound was then closed with 3-0 silk suture material and the animals allowed to recover from the anesthesia.
c. Three sets of animals were tested. In the first test immediately (2+0 hours) before thread removal the animals were injected IV with either analogs PRS 211,095, PRS 211,128, PRS 211,132, or Dexanabinol (PRS 211,007) each at a dosage of 5 mg/kg. One group of animals was treated with 5mi/kg vehicle alone. In another group, the animals subjected to “sham” operation, the suture was passed into the ICA, as described above, but immediately withdrawn. […] Laser Doppler Flow (LDF) determined the success of MCAo—a drop of more then 50% in cerebral blood flow was considered as a sign of successful MCAO. […]
A detailed investigation of neurological performance was carried out on the first, third and the 7th day after the MCAo. […] Animals were scored according to their performance: […]

A further test concerns tail flick model in mice. Description: Tail flick model: analgesic effect and tolerance to morphine. It is filed as in vivo, ICR male mice. The source says:
A mice model of acute pain, the tail flick model, was used to test the ability of compounds to prolong the analgesic activity of opioids, by preventing the development of tolerance, and their ability to reverse established tolerance.
The following animal model of acute pain was used to assess the potential analgesic effects of test compounds either alone or in combination with morphine. […] In this model the nociceptive stimulus is thermal and the latency time till the animal flicks its tail is monitored (Le Bars D., Gozariu M. & Cadden S. W., Pharmacol. Rev. 53: 597–652, 2001).
Hyperalgesia to radiant heat was assessed as follows. ICR male mice (20–30 g average body weight, Harlan, Israel) were injected with test compounds i.p. at the volume dose of 5 ml/kg. Each treatment group contained at least 6 animals. The test compounds were dissolved in Cremophor®:ethanol (70:30 weight/weight) and diluted 1:20 in saline prior to injection. Morphine HCl was directly dissolved in saline. Its vehicle was also included as control. Pain threshold was determined 30 minutes post-administration by measuring the foot-withdrawal latency defined as the time from the onset of radiant heat to foot withdrawal. The cut-off time was preset to 10 seconds in order to prevent tissue damage. […] Test compounds (5 mg/kg) and vehicle (5 ml/kg) were administered 15 minutes before morphine and pain threshold was determined 30 minutes after the first injection of morphine on day 1, 5, 8 and 10. […] Pain threshold was determined on day 1 and 10.
In each type of study, the animals were tested on given days 30 minutes after morphine injection in the tail flick apparatus (Socrel, model DS 20). Animals were gently held while their tails were located above the photoelectric cell. The tails were then illuminated (21V) at 2 cm from the distal tip and the latency time, measured in seconds, was recorded in duplicates. The results are expressed either as absolute latency time or as percent of animals that enjoyed significant analgesia as measured by the fact that their latency time is at least twice the latency time for vehicle treated animals. At the end of the study, the animals were euthanized by i.p. injection of 100 mg/kg sodium pentobarbitone.
The differences between the latency times among various treatment groups was analyzed by analysis of variance (ANOVA) followed by post-hoc Duncan test. The differences between the % of animals showing analgesia among various treatment groups was analyzed by analysis of variance (ANOVA) followed by post-hoc Fisher exact test. A value of p<0.05 is considered to be statistically significant.

Where [2] appears, read: displacement of [3H]MK-801, rat forebrain membranes, read-out: NMDA BINDING IC50.

Like-named read-outs stand apart in the source and are kept apart here.

T1 sequence (P35228 whole entry): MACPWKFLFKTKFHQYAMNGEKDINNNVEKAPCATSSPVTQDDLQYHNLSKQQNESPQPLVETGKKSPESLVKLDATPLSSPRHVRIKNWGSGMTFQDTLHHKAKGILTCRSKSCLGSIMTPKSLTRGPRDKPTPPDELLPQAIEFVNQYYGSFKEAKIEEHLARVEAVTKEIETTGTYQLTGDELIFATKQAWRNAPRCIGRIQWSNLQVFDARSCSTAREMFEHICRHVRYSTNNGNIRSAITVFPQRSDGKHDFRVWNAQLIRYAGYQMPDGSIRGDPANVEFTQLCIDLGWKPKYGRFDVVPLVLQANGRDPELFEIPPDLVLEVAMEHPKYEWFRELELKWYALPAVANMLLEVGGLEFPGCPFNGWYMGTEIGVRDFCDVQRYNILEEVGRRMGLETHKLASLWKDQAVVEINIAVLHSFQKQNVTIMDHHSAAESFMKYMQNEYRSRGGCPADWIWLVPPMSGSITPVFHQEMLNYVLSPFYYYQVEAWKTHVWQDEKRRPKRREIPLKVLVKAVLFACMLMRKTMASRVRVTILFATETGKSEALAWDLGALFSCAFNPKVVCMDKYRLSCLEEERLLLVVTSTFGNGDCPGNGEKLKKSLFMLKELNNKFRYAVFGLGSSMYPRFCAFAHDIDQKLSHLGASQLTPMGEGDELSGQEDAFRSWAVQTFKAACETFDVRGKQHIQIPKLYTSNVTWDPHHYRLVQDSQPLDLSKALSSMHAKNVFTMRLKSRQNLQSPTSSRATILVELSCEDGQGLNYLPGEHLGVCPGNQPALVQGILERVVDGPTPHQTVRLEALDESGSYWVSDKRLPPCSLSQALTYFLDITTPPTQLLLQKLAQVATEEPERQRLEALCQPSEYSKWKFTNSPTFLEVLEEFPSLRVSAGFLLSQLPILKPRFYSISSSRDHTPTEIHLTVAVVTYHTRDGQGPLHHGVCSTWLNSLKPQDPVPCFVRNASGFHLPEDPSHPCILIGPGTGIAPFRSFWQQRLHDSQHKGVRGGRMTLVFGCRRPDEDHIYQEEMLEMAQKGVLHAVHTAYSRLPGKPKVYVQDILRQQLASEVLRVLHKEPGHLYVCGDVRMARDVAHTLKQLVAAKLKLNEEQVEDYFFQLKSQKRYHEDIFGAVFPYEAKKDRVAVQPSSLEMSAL

As to `CCCCCCC(C)(C)c1cc(O)c2c(c1)OC(C)(C)[C@H]1CC=C(CN3CCC(C)CC3)CC21` (single isomer, unassigned; (+)) [211,251-000], the “NMDA receptor binding / affinity (in words)” value in the test on NMDA receptor was “do not exhibit substantial NMDA receptor binding”. On NMDA receptor (setting [2]), the IC50 is more than 100 µM. The inhibition at 10 µM in test [1] amounted to 37%; in the test with TNFα it was 0%.

With `CCCCCCC(C)(C)c1cc(O)c2c(c1)OC(C)(C)[C@H]1CC=C(CC#N)C[C@H]21` [211,006-000], in test [1], the inhibition at 10 µM came to 19%.

As for `CCCCCCC(C)(C)c1cc(O)c2c(c1)OC(C)(C)[C@H]1CC=C(C[S+](C)[O-])C[C@H]21` (some centres unmarked) [211,041-000], in test [1], testing at 10 µM gave an inhibition of 72%.

For the compound `CCCCCCC(C)(C)c1cc(O)c2c(c1)OC(C)(C)[C@H]1CC=C(Cc3ccccc3)C[C@H]21` [211,119-000], in test [1], the inhibition at 10 µM was determined as 0%.

Turning to `CCCCCCC(C)(C)c1cc(O)c2c(c1)OC(C)(C)[C@H]1CC=C(CN3CCCC3)C[C@H]21` [211,128-000], in the test with NMDA receptor, the “NMDA receptor binding / affinity (in words)” value is given as “no detectable affinity”. The 50% inhibitory concentration (IC50) on NMDA receptor (setting [2]) was more than 20 µM; on NMDA receptor (rat forebrain membranes, read-out: mean IC50 of [3H]MK-801 binding (FIG. 2)) it was more than 20 µM. Besides, 10 µM produced 27% inhibition in test [1]. In addition, in the test with transient MCAo in rats, the “function, reduction of mortality and brain morphometry” value was “inactive”.

Compound `CCCCCCC(C)(C)c1cc(O)c2c(c1)OC(C)(C)[C@H]1CC=C(CN3CCOCC3)C[C@H]21` [211,132-000] gave an inhibition at 10 µM in test [1] of 40%.

Take `CCCCCCC(C)(C)c1cc(O)c2c(c1)OC(C)(C)[C@H]1CC=C(CN3CCNCC3)CC21` (some centres unmarked) [211,133-000]: the IC50 on NMDA receptor (setting [2]) was more than 100 µM.

`CCCCCCC(C)(C)c1cc(O)c2c(c1)OC(C)(C)[C@H]1CC=C(CN3CCNC(C)C3)CC21` (some centres unmarked) [211,134-000]: on NMDA receptor (setting [2]), the IC50 is more than 100 µM.

Turning to `CCCCCCC(C)(C)c1cc(O)c2c(c1)OC(C)(C)[C@H]1CC=C(CN3CC=CCC3)C[C@H]21` [211,145-000], at 10 µM the inhibition in test [1] was 60%.

Consider `CCCCCCC(C)(C)c1cc(O)c2c(c1)OC(C)(C)[C@H]1CC=C(CN3CCCCC3)C[C@H]21` [211,159-000], for which the IC50 on NMDA receptor (setting [2]) is more than 20 µM. In test [1], this compound showed an inhibition at 10 µM of 27%.

`CCCCCCC(C)(C)c1cc(O)c2c(c1)OC(C)(C)[C@H]1CC=C(CN3CCN=C3SC)C[C@H]21` [211,204-000] gave an inhibition at 10 µM in test [1] of 85%.

In test [1], `CCCCCCC(C)(C)c1cc(O)c2c(c1)OC(C)(C)[C@H]1CC=C(COCC(O)CO)C[C@H]21` (some centres unmarked) [211,211-000] gave an inhibition at 10 µM of 0%.

In turn, `CCCCCCC(C)(C)c1cc(O)c2c(c1)OC(C)(C)[C@H]1CC=C(CN3CC=CC3)C[C@H]21` [211,212-000] came in with an inhibition at 10 µM in test [1] of 0%.

In the case of `COc1ccc2c(c1)[C@]13CCCC[C@@H]1[C@H](C2)N(C)CC3` [dextromethorphan, reference compound], the “reversal of established tolerance to morphine” value in the test on tail flick model in mice (in combination with morphine from day 11, tested day 12, 15, 17, PRS-211,220 5 mg/kg, dextromethorphan 20 mg/kg) is “statistically undistinguishable from morphine alone”.

Consider `CN1CC[C@]23c4c5ccc(O)c4O[C@H]2[C@@H](O)C=C[C@H]3[C@H]1C5` [morphine, reference compound], for which the latency time with tail flick model in mice (5 mg/kg, plain analgesic study, 30 minutes post-administration) is 7.5 s.
